Results from patent US20260069693A1, “UROLITHINS AND T-CELL MEDIATED IMMUNE RESPONSE” (priority 2022, published 2026).

Test system: Splenic murine T cells
Assay: aCD3/aCD28 stimulation of murine T cells in presence of UA, flow cytometry
Assay type: cell-based
Settings: UA 50 μM + ICG001 10 μM, 48 h
Protocol: Mitochondrial remodelling has been previously associated with alterations in T cell fate (Buck et al., 2016; Yu et al., 2020b). Given the observed dependency of the UA effect on CD8^+ T cells, the inventors wondered whether UA may also directly affect T cell fate commitment. Purified T cells from FVB mice were stimulated with aCD3/aCD28 beads to induce T cell differentiation into effector T cell subsets in the presence or absence of UA for up to 72 hours (FIG. 2A). […] Previously, a rare naïve-like subset of T cells with enhanced stemness capabilities, termed T memory stem cells (TSCM) has been identified (Gattinoni et al., 2009). TSCM are marked by extreme longevity, their ability to self-renew, and potential for immune reconstitution (Gattinoni et al., 2017) which translates into potent anti-tumor immunity. Phenotypically, TSCM represent a subset of minimally differentiated T cells, which share a CD44^loCD62L^hi phenotype with naïve T cells, but are phenotypically distinct by expressing high levels of Sca1 (Gattinoni et al., 2009). […] This was associated with reduced cyclin D1 expression (not shown), in line with previous observations that link TSCM reprogramming to halted proliferation (Gattinoni et al., 2009; Verma et al., 2021).
Splenic murine T cells were isolated from mice aged 6-20 weeks by negative selection with EasySep mouse T cell isolation kit (Stem cell) according to the manufacturer's instructions. To monitor T cell proliferation, purified T cells were loaded with CellTrace Violet (C34557 ThermoFisher Scientific). T cell activation was initiated using αCD3/CD28 activation beads (11456D; ThermoFisher Scientific) at a ratio of 25 μl dynabeads per 0.5×10^6 T-cells. Cells were activated with 25-50 μM Urolithin A (Tocris) or DMSO in T cell activation Medium (RPMI (ThermoFisher Scientific) 10% FBS (South America origin), 10 mM Hepes (Sigma), 1× Non-Essential Amino Acid, 1 mM Sodium Pyruvate, 50 μM B-Mercaptoethanol, 100 U/ml penicillin, 100 μg/ml streptomycin and 2 mM Glutamax (ThermoFisher Scientific) for the indicated durations. In selected experiments, cells were stimulated in the presence of inhibitors, namely TCF1i (ICG-001; SelleckChem; 10 μM) and PGC-1αi (SR-18292, Sigma-Aldrich; 10 μm,). For subsequent analysis, activating beads were magnetically removed prior antibody staining. For human T cells, peripheral blood mononuclear cells were purified with a Ficoll-Paque (GE healthcare) gradient. T cells were enriched with EasySep Human T Cell Isolation Kit (StemCell) and activated with dynabead Human T-Activator CD3/CD28 for T Cell Expansion and Activation Kit (11131D; ThermoFisher Scientific), similar to murine T cell stimulation. […]
For flow cytometric analysis of mitochondria and lysosomes 500 μl of Mitotracker Red (200 nM; ThermoFisher) or Lysotracker Red DND-99 (75 nM; ThermoFisher) were applied followed by surface staining. To study changes in mitochondrial membrane potential, Mitoprobe TMRM kit (ThermoFisher) was used according to the manufacturer's instructions. Cell proliferation was assessed by CellTrace Violet (Invitrogen, C34557) at a concentration of 5 μM according to manufacturer's instructions. For human samples, cells were stained as described above with Fixable Viability Dye-eF780, αCD95-BV421 (DX2; 562616), αCD62L-PE (DREG-56; 555544), αCCR7-AF700 (150503; 561143), αCD45RO-APC (UCHL; 559865), αCD45RA-FITC (HI100; 555488), αCD8-PE-CF594 (RPA-T8; 562282) and αCD4-BV786 (OKT4; 566806) from BD.

O=C1[C@H](Cc2ccc(O)cc2)N2C(=O)CCN(C(=O)NCc3ccccc3)[C@H]2CN1Cc1cccc2ccccc12 [ICG001, reference compound]
UA-induced TSCM formation in vitro under TCF-1 block: abrogated
